Measured values as given in paper PMC12136037, “Type II kinase inhibitors that target Parkinson’s disease–associated LRRK2” (Science Advances, 2025).
“And” between values parts separate entries of the source, which are not always exact repeats. Identical values can stand only once.

What was measured:
LRRK2^RCKW = target: T1, LRRK2^RCKW (Homo sapiens, UniProt Q5S007); assay: Biochemical LRRK2 activity assay (PhosphoSense, AssayQuant SOX peptide AQT0615); conditions: for normalized response (LRRK2 activity): normalized to 0% (no kinase) and 100% (no inhibitor) control, two singlicate columns per compound; for IC50: LRRK2^RCKW kinase activity, in vitro
T1 construct: LRRK2 R1327 to E2527; His6-Z-tag (TEV cleavable) (N, cleaved yes); host or cells: Sf9 insect cells (baculovirus)
T1 sequence (Q5S007 1327-2527): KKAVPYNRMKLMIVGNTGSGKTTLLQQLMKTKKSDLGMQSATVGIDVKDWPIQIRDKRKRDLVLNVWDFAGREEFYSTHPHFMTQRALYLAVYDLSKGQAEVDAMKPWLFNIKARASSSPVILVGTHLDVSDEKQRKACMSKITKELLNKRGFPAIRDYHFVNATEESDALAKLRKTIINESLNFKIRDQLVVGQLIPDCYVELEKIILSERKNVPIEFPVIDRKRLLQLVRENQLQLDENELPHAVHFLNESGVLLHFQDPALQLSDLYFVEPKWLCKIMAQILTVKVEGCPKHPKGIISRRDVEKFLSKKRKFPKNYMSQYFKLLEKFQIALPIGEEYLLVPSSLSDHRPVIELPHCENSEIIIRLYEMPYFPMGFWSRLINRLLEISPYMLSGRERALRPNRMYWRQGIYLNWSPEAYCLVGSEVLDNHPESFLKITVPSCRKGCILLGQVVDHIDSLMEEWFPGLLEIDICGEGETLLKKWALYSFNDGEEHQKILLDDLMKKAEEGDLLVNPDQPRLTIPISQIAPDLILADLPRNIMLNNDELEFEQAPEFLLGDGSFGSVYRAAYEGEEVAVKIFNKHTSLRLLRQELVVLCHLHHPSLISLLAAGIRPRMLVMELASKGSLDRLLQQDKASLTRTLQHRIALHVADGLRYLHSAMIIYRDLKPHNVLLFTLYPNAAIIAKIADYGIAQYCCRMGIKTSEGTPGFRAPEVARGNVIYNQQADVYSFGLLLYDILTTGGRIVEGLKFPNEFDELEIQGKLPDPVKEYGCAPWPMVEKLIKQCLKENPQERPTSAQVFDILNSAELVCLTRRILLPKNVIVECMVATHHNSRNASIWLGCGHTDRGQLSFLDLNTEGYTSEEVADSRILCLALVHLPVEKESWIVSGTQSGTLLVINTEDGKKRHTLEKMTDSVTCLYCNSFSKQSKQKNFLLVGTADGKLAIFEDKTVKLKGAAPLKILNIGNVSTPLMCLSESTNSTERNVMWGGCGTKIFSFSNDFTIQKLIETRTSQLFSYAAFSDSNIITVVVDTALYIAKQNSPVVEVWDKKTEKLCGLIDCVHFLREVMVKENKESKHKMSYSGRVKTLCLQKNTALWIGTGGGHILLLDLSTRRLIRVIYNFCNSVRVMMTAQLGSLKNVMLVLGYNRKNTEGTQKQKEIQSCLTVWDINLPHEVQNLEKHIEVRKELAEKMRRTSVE
Protocol: Two wells per compound were used as 0% (without protein and compound) and 100% (without compound) control. […] The 0% control wells were filled with 10 μl of pure reaction buffer. With the ECHO, 5 nl of 100 mM ATP was pipetted into each well, the plates were centrifuged at 1500g for 2 min, and the reaction was incubated at room temperature for 4 hours. The fluorescence of the SOX-peptide after 360-nm excitation was measured at 487-nm emission with a PHERAstar plate reader (BMG Labtech). The IC50 values were calculated from a nonlinear regression of the log[inhibitor] versus the normalized response with GraphPad Prism 8 (www.graphpad.com/, RRID:SCR_002798).

LRRK2^KW = target: T2, LRRK2^KW (Homo sapiens, UniProt Q5S007); assay: DSF thermal stabilization of LRRK2^KW; format: binding; conditions: DSF, LRRK2^KW, 10 μM inhibitor
T2 construct: LRRK2 R1847 to E2527; His6-Z-tag (TEV cleavable) (N, cleaved yes); host or cells: Sf9 insect cells (baculovirus)
T2 sequence (Q5S007 1847-2527): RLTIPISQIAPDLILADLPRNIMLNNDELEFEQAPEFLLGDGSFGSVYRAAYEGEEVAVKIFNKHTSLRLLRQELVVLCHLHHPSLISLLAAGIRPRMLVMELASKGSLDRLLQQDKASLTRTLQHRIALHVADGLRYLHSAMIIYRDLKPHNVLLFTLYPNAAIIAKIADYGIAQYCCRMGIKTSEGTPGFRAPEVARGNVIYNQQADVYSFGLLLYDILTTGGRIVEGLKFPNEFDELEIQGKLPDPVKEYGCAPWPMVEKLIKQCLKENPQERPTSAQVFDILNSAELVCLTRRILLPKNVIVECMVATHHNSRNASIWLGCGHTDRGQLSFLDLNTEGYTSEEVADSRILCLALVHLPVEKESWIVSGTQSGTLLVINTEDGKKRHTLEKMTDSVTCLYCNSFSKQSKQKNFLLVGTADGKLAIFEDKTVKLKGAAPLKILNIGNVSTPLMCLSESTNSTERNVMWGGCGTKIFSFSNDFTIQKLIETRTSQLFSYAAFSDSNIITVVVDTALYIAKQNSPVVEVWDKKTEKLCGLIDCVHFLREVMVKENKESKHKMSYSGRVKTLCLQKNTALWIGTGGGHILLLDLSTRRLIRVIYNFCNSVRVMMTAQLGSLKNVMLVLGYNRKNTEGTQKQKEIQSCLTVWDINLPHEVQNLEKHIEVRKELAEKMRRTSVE
Protocol: To characterize binding between small molecules and LRRK2^KW, induced thermal stabilization was measured by DSF according to previously established protocols ([47]). In brief, LRRK2^KW was diluted to 4 μM in 20 mM Hepes (pH 7.4), 150 mM NaCl, 0.5 mM TCEP, 0.5% glycerol, 20 μM GDP, and 2.5 mM MgCl2, and SYPRO Orange was added (1:1000, MilliporeSigma). Inhibitor (10 μM) to be tested was added to a final sample volume of 20 μl per well of a 96-well plate (white, Starlab). […] The fluorescence was plotted against the temperature, and the melting point (Tm) was determined as the minimum of the first derivative relative to the control.

| normalized response (LRRK2 activity) (LRRK2^RCKW; log[inhibitor(mol)] -6.90309) | normalized response (LRRK2 activity) (LRRK2^RCKW; log[inhibitor(mol)] -7.30103) | normalized response (LRRK2 activity) (LRRK2^RCKW; log[inhibitor(mol)] -7.60206) | normalized response (LRRK2 activity) (LRRK2^RCKW; log[inhibitor(mol)] -8.09691) | normalized response (LRRK2 activity) (LRRK2^RCKW; log[inhibitor(mol)] -8.61979) | normalized response (LRRK2 activity) (LRRK2^RCKW; log[inhibitor(mol)] -9.09691) | normalized response (LRRK2 activity) (LRRK2^RCKW; log[inhibitor(mol)] -9.39794) | ∆Tm (K) (LRRK2^KW) | IC50 (LRRK2^RCKW) [nM] | normalized response (LRRK2 activity) (LRRK2^RCKW; log[inhibitor(mol)] -4.82391) | normalized response (LRRK2 activity) (LRRK2^RCKW; log[inhibitor(mol)] -5.12494) | normalized response (LRRK2 activity) (LRRK2^RCKW; log[inhibitor(mol)] -5.60206) | normalized response (LRRK2 activity) (LRRK2^RCKW; log[inhibitor(mol)] -6.30103) | Compound |
| --- | --- | --- | --- | --- | --- | --- | --- | --- | --- | --- | --- | --- | --- |
| 115.444% and 117.007% | 105.55% and 105.293% | 108.325% and 105.046% | 100.105% and 95.8379% | 94.7466% and 91.6315% | 101.92% and 85.7909% | 98.761% and 96.3918% | 1.5 | – | – | – | – | – | COc1cc(S(C)(=O)=O)ccc1Nc1nc(N(C)C)c2c(-c3cccc(NC(=O)Nc4cc(C(C)(C)C)nn4-c4ccc5ncccc5c4)c3)c[nH]c2n1 [Compound 35] |
| 93.4358% and 94.7027% | 100.456% and 104.273% | 103.702% and 110.256% | 103.006% and 100.445% | 97.1047% and 100.867% | 96.2602% and 102.309% | 100.406% and 102.43% | 6.0 | 694 ± 1 | -13.5275% and -8.323% | -11.1035% and -8.9537% | 14.4144% and 11.8039% | 58.5784% and 59.582% | O=C(Nc1ccc(F)cc1)C1(C(=O)Nc2cccc(-c3c[nH]c4ncnc(N5CCOCC5)c34)c2)CCCC1 [Compound 3] |
| 86.2516% and 93.0519% | 93.3097% and 89.5476% | 86.8493% and 91.0776% | 91.1928% and 88.5988% | 102.068% and 96.0518% | 105.369% and 96.9676% | 104.196% and 102.019% | 7.0 | 912 ± 141 | 4.225% and -5.581% | 6.8846% and 7.148% | 31.5798% and 32.6109% | 61.7209% and 66.4318% | O=C(c1cccc(NC(=O)C2(C(=O)Nc3ccc(F)cc3)CC2)c1)c1c[nH]c2ncnc(N3CCOCC3)c12 [Compound 8] |
| 104.293% and 98.1919% | 105.91% and 76.5961% | 104.315% and 59.7541% | 97.675% and 89.444% | 99.5438% and 104.868% | 109.546% and 62.2548% | 105.46% and 118.944% | 4.0 | 2110 ± 1190 | – | – | 49.186% and 49.8222% | 82.8654% and 52.2345% | Cn1cc(NC(=O)C2(C(=O)Nc3cccc(-c4c[nH]c5ncnc(N6CCOCC6)c45)c3)CC2)cn1 [Compound 9] |
| 102.663% and 58.1284% | 103.229% and 99.9077% | 100.894% and 96.1562% | 96.775% and 100.111% | 99.9803% and 105.134% | 138.579% and 106.168% | 136.224% and 108.416% | 4.3 | 3180 ± 134 | – | 28.5996% and 28.8703% | 54.9087% and 59.3757% | 85.68% and 83.1467% | CN1CCc2cc(NC(=O)C3(C(=O)Nc4cccc(-c5c[nH]c6ncnc(N7CCOCC7)c56)c4)CC3)ccc2C1 [Compound 10] |
